Results on 29 compounds are retold here after ChEMBL document CHEMBL1149437, “1-Alkyl-benzotriazole-5-carboxylic acids are highly selective agonists of the human orphan G-protein-coupled receptor GPR109b” (J Med Chem, 2006).

Usually EC50 stands for the midpoint of the concentration-response curve. The low end stands for higher potency in that assay, the high end for lower potency in that assay.

SMILES strings stand for the structures. Activity calls are given as the source filed them. The rule behind the calls is not given here.

Test [1] deals with Hydroxycarboxylic acid receptor 3 (Homo sapiens, UniProt P49019). The experiment in a line: Agonistic activity at GPR109b by cAMP whole cell assay. It is filed as functional.
In test [2] the target is Hydroxycarboxylic acid receptor 2 (Mus musculus) (UniProt Q9EP66). The experiment in a line: Activity against GPR109a upto 100 uM. It is filed as functional.
Test [3] addresses Adrenergic receptor beta (Homo sapiens) (UniProt P08588+P07550+P13945). Kind of test: Activity against beta adrenergic receptor. Type of test: protein assay.

Sequence of Hydroxycarboxylic acid receptor 2 (Mus musculus) (Q9EP66 whole entry): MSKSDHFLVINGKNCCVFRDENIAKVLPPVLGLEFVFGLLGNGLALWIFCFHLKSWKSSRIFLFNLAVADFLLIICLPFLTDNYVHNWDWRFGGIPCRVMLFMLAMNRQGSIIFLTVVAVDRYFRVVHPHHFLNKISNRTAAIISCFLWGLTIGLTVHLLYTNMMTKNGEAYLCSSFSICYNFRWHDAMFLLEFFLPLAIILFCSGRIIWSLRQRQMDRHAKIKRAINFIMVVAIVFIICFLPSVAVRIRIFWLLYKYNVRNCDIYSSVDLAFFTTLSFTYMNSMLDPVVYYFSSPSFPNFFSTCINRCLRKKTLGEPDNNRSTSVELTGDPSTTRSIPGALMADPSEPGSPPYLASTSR
Sequence of Hydroxycarboxylic acid receptor 3 (P49019 whole entry): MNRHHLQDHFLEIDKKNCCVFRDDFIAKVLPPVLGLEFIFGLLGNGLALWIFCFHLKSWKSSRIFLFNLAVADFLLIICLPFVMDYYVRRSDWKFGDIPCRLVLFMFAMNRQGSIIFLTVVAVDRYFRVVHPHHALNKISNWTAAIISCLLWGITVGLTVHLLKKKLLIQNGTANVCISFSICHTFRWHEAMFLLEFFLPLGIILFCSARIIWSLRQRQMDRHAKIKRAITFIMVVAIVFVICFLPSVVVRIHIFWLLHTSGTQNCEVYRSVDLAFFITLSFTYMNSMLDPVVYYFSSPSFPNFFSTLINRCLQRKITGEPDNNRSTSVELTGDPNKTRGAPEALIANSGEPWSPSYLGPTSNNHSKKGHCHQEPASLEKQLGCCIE

For the compound `COc1ccc(Cn2nnc3cc(C(=O)O)ccc32)cc1`, the “Log EC50” value in test [1] is “inactive”. Further, the result in test [2] was inactive.

On to `O=C(O)c1ccc2c(c1)nnn2CC1CC1`, for which the “Log EC50” value in test [1] is “inactive”. In addition, the outcome in test [2] was inactive.

On to `CCn1nnc2cc(C(=O)O)ccc21`, for which the EC50 in test [1] was 0.891 µM. In addition, in test [2], the outcome was inactive.

For the compound `COc1cccc(Cn2nnc3cc(C(=O)O)ccc32)c1`, the EC50 in test [1] is 5.01 µM. Also, the result in test [2] was inactive.

In test [1], `CCCCn1nnc2cc(C(=O)O)ccc21` showed an EC50 of 0.692 µM. Also, in test [2], the outcome was inactive.

As for `O=C(O)c1ccc2c(c1)nnn2C1CCC1`, the concentration giving a half-maximal response (EC50) in test [1] was 3.09 µM. For the same compound, the result in test [2] was inactive.

For `Cn1nnc2cc(C(=O)O)ccc21`, in test [1], the midpoint of the response, the EC50, lay at 2 µM. The result in test [2] was inactive.

In turn, `COCC(C)n1nnc2cc(C(=O)O)ccc21` (centres undefined) had an EC50 in test [1] of 0.2 µM. Further, the result in test [2] was inactive.

With `CCSCCn1nnc2cc(C(=O)O)ccc21`, the EC50 in test [1] was 0.302 µM. Further, in test [2], the result was inactive.

On to `O=C(O)c1ccc2c(c1)nnn2C1CCCC1`, for which, in test [1], the EC50 is 1.1 µM. Also, the outcome in test [2] was inactive.

`CC(C)n1nnc2cc(-c3nn[nH]n3)ccc21`: in test [1], the “Log EC50” value is “inactive”. The result in test [2] was inactive.

For `COCCn1nnc2cc(C(=O)O)ccc21`, the EC50 in test [1] is 0.316 µM. For the same compound, the result in test [2] was inactive.

`O=C(O)c1ccc2c(c1)nnn2C1CC1` gave an EC50 in test [1] of 2.34 µM. Besides, in test [2], the result was inactive.

As to `CC(C)(C)n1nnc2cc(C(=O)O)ccc21`, the EC50 in test [1] was 0.257 µM. Besides, in test [2], the outcome was inactive.

`CCOCCn1nnc2cc(C(=O)O)ccc21` showed an EC50 in test [1] of 0.257 µM. In addition, in test [2], the result was inactive.

Turning to `O=C(O)c1ccc2[nH]nnc2c1`, the “Log EC50” value in test [1] was “inactive”. The outcome in test [2] was inactive.

As to `O=C(O)c1ccc2c(c1)nnn2-c1ccccc1`, in test [1], the “Log EC50” value is “inactive”. Further, in test [2], the outcome was inactive.

As for `Cc1nc2cc(C(=O)O)ccc2n1C(C)C`, in test [1], the “Log EC50” value was “inactive”. In addition, the outcome in test [2] was inactive.

Consider `CC(C)n1nnc2cc(C(=O)O)ccc21`, for which the result in test [3] and in test [2] was inactive. The compound also gave an EC50 in test [1] of 0.398 µM.

For the compound `CCCn1nnc2cc(C(=O)O)ccc21`, a half-maximal response in test [1] (EC50) required 7.41 µM. Further, the result in test [2] was inactive.

As to `CC(C)n1cnc2cc(C(=O)O)ccc21`, in test [1], the midpoint of the response, the EC50, lay at 3.39 µM. In test [2], the outcome was inactive.

Consider `O=C(O)c1ccc2c(c1)nnn2C1CCCCC1`, for which, in test [1], a half-maximal effect (EC50) was put at 5.89 µM. In addition, the outcome in test [2] was inactive.

On to `CCC(CC)n1nnc2cc(C(=O)O)ccc21`, for which the EC50 in test [1] was 3.02 µM. Moreover, the result in test [2] was inactive.

As for `C=CCn1nnc2cc(C(=O)O)ccc21`, the “Log EC50” value in test [1] was “inactive”. The outcome in test [2] was inactive.

In test [1], `CCC(C)n1nnc2cc(C(=O)O)ccc21` (centres undefined) gave an EC50 of 0.331 µM. In test [2], the outcome was inactive.

As to `O=C(O)c1ccc2c(c1)nnn2Cc1ccccc1`, the response in test [1] was half-maximal at 9.12 µM (EC50). The result in test [2] was inactive.

As for `O=C(O)c1ccc2c(c1)nnn2C(c1ccccc1)c1ccccc1`, the EC50 in test [1] is more than 10 µM. In addition, the result in test [2] was inactive.

As to `O=C(O)c1ccc2c(c1)nnn2Cc1cc(F)cc(F)c1`, the EC50 in test [1] was more than 10 µM. Besides, the outcome in test [2] was inactive.

`CCCCCn1nnc2cc(C(=O)O)ccc21`: the EC50 in test [1] was 0.288 µM. Further, in test [2], the outcome was inactive.
